The compounds below were run against T1, sodium-proton exchanger of subtype 3 (NHE3) (Homo sapiens, UniProt P48764) (assay: Recovery of intracellular pH (pHi) after acidification in LAP1 cells stably expressing NHE3 (BCECF fluorescence, FLIPR)). Conditions: LAP1 cells stably expressing NHE3; pH recovery after acidification; range 1 is % inhibition at 10 μM; read-out: Activity range (inhibitory effect on NHE3).
T1 construct: expressed in transfected cells
T1 sequence (P48764 26-834): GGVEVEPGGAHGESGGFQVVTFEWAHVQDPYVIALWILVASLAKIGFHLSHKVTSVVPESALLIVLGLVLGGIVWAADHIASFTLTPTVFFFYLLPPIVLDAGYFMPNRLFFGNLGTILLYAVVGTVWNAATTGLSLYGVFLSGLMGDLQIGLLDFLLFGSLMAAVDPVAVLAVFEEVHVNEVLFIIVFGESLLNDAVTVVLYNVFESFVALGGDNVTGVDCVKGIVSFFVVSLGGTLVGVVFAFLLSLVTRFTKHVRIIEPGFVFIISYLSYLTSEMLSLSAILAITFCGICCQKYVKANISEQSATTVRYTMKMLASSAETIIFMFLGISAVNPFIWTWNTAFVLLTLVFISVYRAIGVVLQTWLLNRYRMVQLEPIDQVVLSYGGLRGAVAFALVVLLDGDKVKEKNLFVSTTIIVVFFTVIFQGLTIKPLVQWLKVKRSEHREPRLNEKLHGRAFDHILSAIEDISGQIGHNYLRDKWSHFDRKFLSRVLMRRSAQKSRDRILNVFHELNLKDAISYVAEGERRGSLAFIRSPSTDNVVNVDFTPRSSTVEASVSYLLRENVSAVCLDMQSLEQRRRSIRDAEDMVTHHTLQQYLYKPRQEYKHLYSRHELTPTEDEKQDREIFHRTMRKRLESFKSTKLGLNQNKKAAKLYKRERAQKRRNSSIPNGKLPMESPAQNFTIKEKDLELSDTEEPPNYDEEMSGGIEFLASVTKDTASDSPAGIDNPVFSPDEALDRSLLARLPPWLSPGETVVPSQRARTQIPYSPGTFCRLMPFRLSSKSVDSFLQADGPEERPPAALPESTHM
Assay type: cell-based

SMILES	IC50	inhibition at 10 µM
Cc1nnc(C)n1-c1ccc(O[C@H]2c3cc(Cl)cc(Cl)c3C[C@@H]2N2CC[C@H](N)C2)cc1 [Example 207, (S)-1-{trans-(1S,2S)-4,6-dichloro-1-[4-(3,5-dimethyl-[1,2,4]triazol-4-yl)phenoxy]indan-2-yl}pyrrolidin-3-ylamine]	< 1000 nM	–
NC(=O)c1cc(Cl)ccc1O[C@H]1c2cc(Cl)cc(Cl)c2C[C@@H]1N1CCC1 [Example 353, 2-((1S,2S)-2-azetidin-1-yl-4,6-dichloroindan-1-yloxy)-5-chlorobenzamide]	–	20 to 50%
CN1CCCN([C@H]2Cc3c(Cl)cc(Cl)cc3[C@@H]2Oc2ccc(S(C)(=O)=O)cc2)CC1 [Example 305, 1-[trans-(1S,2S)-4,6-dichloro-1-(4-methanesulfonylphenoxy)indan-2-yl]-4-methyl-[1,4]diazepane]	< 1000 nM	–
CC(=O)Nc1cccc(O[C@H]2c3ccccc3C[C@@H]2N2CCCCCC2)c1 (racemic) [Example 636, N-[3-(rac-trans-(1,2)-2-azepan-1-ylindan-1-yloxy)phenyl]acetamide]	< 1000 nM	–
Cc1nnc(C)n1-c1ccc(O[C@H]2c3cc(Cl)cc(Cl)c3C[C@@H]2N2CC[C@@H](O)C2)c(F)c1 [Example 130, (R)-1-{trans-(1S,2S)-4,6-dichloro-1-[4-(3,5-dimethyl-[1,2,4]triazol-4-yl)-2-fluorophenoxy]indan-2-yl}pyrrolidin-3-ol]	< 1000 nM	–
CS(=O)(=O)c1ccc(O[C@H]2c3ccccc3C[C@@H]2NCc2ccccc2)cc1 (racemic) [Example 597, benzyl[1-(4-methanesulfonylphenoxy)indan-2-yl]amine]	–	20 to 50%
CS(=O)(=O)c1ccc(O[C@H]2c3cc(Cl)cc(Cl)c3C[C@@H]2N2CCCNCC2)cc1 (racemic) [Example 277, 1-[rac-trans-(1,2)-4,6-dichloro-1-(4-methanesulfonylphenoxy)indan-2-yl]-[1,4]diazepane]	< 1000 nM	–
CN1CCC2CN([C@H]3Cc4c(Cl)cc(Cl)cc4[C@@H]3Oc3ccc(S(C)(=O)=O)cc3)CC21 (single isomer, unassigned) [Example 582]	1000 to 10000 nM	–
CN1CCN(c2ccc(O[C@H]3c4cc(Cl)cc(Cl)c4C[C@@H]3N3CC[C@@H](O)C3)cc2)C1=O [Example 332, 1-{4-[trans-(1S,2S)-4,6-dichloro-2-((R)-3-hydroxypyrrolidin-1-yl)indan-1-yloxy]phenyl}-3-methylimidazolidin-2-one]	1000 to 10000 nM	–
c1ccc2c(c1)CC[C@H](N1CCOCC1)[C@H]2Oc1cccc2ncccc12 (racemic) [Example 570, 5-(rac-trans-(1,2)-2-morpholin-4-yl-1,2,3,4-tetrahydronaphthalen-1-yloxy)quinoline]	–	20 to 50%
CN1CCN(c2cccc(O[C@H]3c4cc(Cl)cc(Cl)c4C[C@@H]3N3CC[C@@H](O)C3)c2)C1=O [Example 319, 1-{3-[trans-(1S,2S)-4,6-dichloro-2-((R)-3-hydroxypyrrolidin-1-yl)indan-1-yloxy]phenyl}-3-methylimidazolidin-2-one]	1000 to 10000 nM	–
N[C@@H]1CCCN([C@H]2CCc3ccccc3[C@@H]2Oc2ccc(F)cc2-c2cc[nH]n2)C1 (racemic) [Example 120, (R)-1-{rac-trans-(1,2)-1-[4-fluoro-2-(1H-pyrazol-3-yl)phenoxy]-1,2,3,4-tetrahydronaphthalen-2-yl}piperidin-3-ylamine]	< 1000 nM	–
Cc1nnc(C2CC2)n1-c1ccc(O[C@H]2c3ccccc3C[C@@H]2N2CCCC2)cc1 (racemic) [Example 448, 3-Cyclopropyl-5-methyl-4-[4-(rac-trans-(1,2)-2-pyrrolidin-1-ylindan-1-yloxy)phenyl]-4H-[1,2,4]triazole]	< 1000 nM	–
NC(=O)c1cccc(O[C@H]2c3ccccc3CC[C@@H]2N2CCC[C@H](N)C2)c1 (racemic) [Example 412, 3-[rac-trans-(1,2)-2-((S)-3-aminopiperidin-1-yl)-1,2,3,4-tetrahydronaphthalen-1-yloxy]benzamide]	–	20 to 50%

Now from value to compound:

IC50	inhibition at 10 µM	SMILES
< 1000 nM	–	CN1CCCN([C@H]2Cc3c(Cl)cc(Cl)cc3[C@@H]2Oc2ccc(C#N)cc2F)CC1 [Example 556, 4-[trans-(1S,2S)-4,6-dichloro-2-(4-methyl-[1,4]diazepan-1-yl)indan-1-yloxy]-3-fluorobenzonitrile]
< 1000 nM	–	N#Cc1ccc(O[C@@H]2c3ccccc3C[C@H]2N2C[C@H]3CNC[C@H]3C2)c(Cl)c1 (racemic) [Example 445, 3-chloro-4-[rac-trans-(1,2)-2-(hexahydropyrrolo[3,4-c]pyrrol-2-yl)indan-1-yloxy]benzonitrile]
1000 to 10000 nM	–	NCC1CCN([C@@H]2Cc3ccccc3[C@H]2Oc2ccc3[nH]cc(CC(N)=O)c3c2)CC1 (racemic) [Example 388, 2-{5-[rac-trans-(1,2)-2-(4-aminomethylpiperidin-1-yl)indan-1-yloxy]-1H-indol-3-yl}acetamide]
–	20 to 50%	O=[N+]([O-])c1ccc(O[C@H]2c3ccccc3C[C@@H]2N2CCCC2)c(Cl)c1 (racemic) [Example 251, 1-[1-(2-chloro-4-nitrophenoxy)indan-2-yl]pyrrolidine]
–	20 to 50%	N[C@@H]1CCCN([C@H]2CCc3ccccc3[C@@H]2Oc2ccc(F)c(Cl)c2)C1 (racemic) [Example 52, (R)-1-[rac-trans-(1,2)-1-(3-chloro-4-fluorophenoxy)-1,2,3,4-tetrahydronaphthalen-2-yl]piperidin-3-ylamine]
–	20 to 50%	N#Cc1cc(Cl)ccc1O[C@H]1c2ccccc2CC[C@@H]1N1CCC[C@@H](N)C1 (racemic) [Example 366, 2-[rac-trans-(1,2)-2-((R)-3-aminopiperidin-1-yl)-1,2,3,4-tetrahydronaphthalen-1-yloxy]-5-chlorobenzonitrile]
1000 to 10000 nM	–	NCC1CCN([C@@H]2Cc3ccccc3[C@H]2Oc2cccc(N3CCNCC3)c2)CC1 (racemic) [Example 616, C-{1-[rac-trans-(1,2)-1-(3-piperazin-1-ylphenoxy)indan-2-yl]piperidin-4-yl}methylamine]
1000 to 10000 nM	–	N#Cc1ccc(O[C@H]2c3ccccc3CC[C@@H]2N2CCC[C@H](N)C2)c(Cl)c1 (racemic) [Example 532, 4-[rac-trans-(1,2)-2-((S)-3-aminopiperidin-1-yl)-1,2,3,4-tetrahydronaphthalen-1-yloxy]-3-chlorobenzonitrile]
1000 to 10000 nM	–	NCC1CCN([C@@H]2Cc3ccccc3[C@H]2Oc2cccc3[nH]ccc23)C1 (mixture of isomers) [Example 601, C-{1-[rac-trans-(1,2)-1-(1H-indol-4-yloxy)indan-2-yl]pyrrolidin-3-yl}methylamine]
–	20 to 50%	Clc1cnccc1O[C@H]1c2ccccc2C[C@@H]1CN1CCOCC1 (racemic) [Example 486, 4-[1-(3-chloropyridin-4-yloxy)indan-2-ylmethyl]morpholine]
–	20 to 50%	N[C@H]1CCCN([C@H]2CCc3ccccc3[C@@H]2Oc2ccc(F)cc2-c2cc[nH]n2)C1 (racemic) [Example 205, (S)-1-{rac-trans-(1,2)-1-[4-fluoro-2-(1H-pyrazol-3-yl)phenoxy]-1,2,3,4-tetrahydronaphthalen-2-yl}piperidin-3-ylamine]
1000 to 10000 nM	–	CC(=O)Nc1cccc(O[C@@H]2c3ccccc3C[C@H]2N2CCC[C@H](N)C2)c1 (racemic) [Example 685, N-{3-[rac-trans-(1,2)-2-((S)-3-aminopiperidin-1-yl)indan-1-yloxy]phenyl}acetamide]
